Reference: patent EP2272817A1, “PAI-1 INHIBITOR” (Institute of Medicinal Molecular Design, Inc., priority 2008, dated 2009)

Each compound was assayed against recombinant human PAI-1 (Homo sapiens, UniProt P05121) (assay: Test Example 2: Human PAI-1 Inhibitory Activity (pH 7.4 HEPES buffer, 10 minutes incubation with two-chain tPA)). Conditions: read-out: Inhibition Rate of PAI-1 Activity (%).
Type: biochemical
Design: purchased Molecular Innovations, Inc
Protocol: 0.1 M HEPES, 0.1 M NaCl. 1 mM EDTA. 0.1 % Polyethylene glycol 8,000 (Hampton Research Corporation),
2 mM Dimethyldecylphoshine oxide [Apo-10] (Fluka Corporation)

Sequence of recombinant human PAI-1 (P05121 24-402): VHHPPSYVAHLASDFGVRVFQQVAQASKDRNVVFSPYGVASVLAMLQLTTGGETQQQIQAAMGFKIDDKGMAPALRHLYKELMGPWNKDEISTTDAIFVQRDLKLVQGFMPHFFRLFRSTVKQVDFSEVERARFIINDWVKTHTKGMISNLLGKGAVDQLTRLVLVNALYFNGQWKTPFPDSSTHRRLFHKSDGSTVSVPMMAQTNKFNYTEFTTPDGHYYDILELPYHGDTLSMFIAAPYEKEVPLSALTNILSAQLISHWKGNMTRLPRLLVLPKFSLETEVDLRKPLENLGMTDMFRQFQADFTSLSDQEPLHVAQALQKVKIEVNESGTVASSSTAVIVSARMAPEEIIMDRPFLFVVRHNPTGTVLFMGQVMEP

Row | inhibition at 0.1 µM [%] | inhibition at 0.3 µM [%] | inhibition at 1 µM [%] | inhibition at 3 µM [%] | inhibition at 10 µM [%] | inhibition at 25 µM [%] | SMILES
1 | 1 | 1 | 74 | 96 |  |  | CCCCC(Nc1cc(-c2ccc(OC(F)(F)F)cc2)ccc1Oc1ccc(C(C)(C)C)cc1)C(=O)O (centres unmarked) [Compound 423]
2 | 16 | 40 | > 99 | > 99 |  |  | CCCCCCCOc1cc(N(CCCCc2ccccc2)C(=O)C(=O)O)ccc1-c1ccc(OC(F)(F)F)cc1 [Compound 650]
3 | 4 | 22 | 96 | > 99 |  |  | CC(C)(C)c1ccc(Oc2cc(-c3ccc4ccccc4c3)ccc2/C=C/C(=O)O)cc1 [Compound 469]
4 | 5 | 7 | 11 | 49 |  |  | CC(C)(C)c1ccc(Oc2cc(-c3ccc(C#N)cc3)ccc2OCC(=O)O)cc1 [Compound 471]
5 | 0 | 11 | 77 | 97 |  |  | CCCCC(Oc1ccc(-c2ccc(OC(F)(F)F)cc2)cc1OCCCCc1ccccc1)C(=O)O (centres unmarked) [Compound 311]
6 | 4 | 9 | 85 | > 99 |  |  | Cc1cc(C)cc(-c2ccc(/C=C/C(=O)O)c(Oc3ccc(C(C)(C)C)cc3)c2)c1 [Compound 496]
7 | 12 | 14 | 69 | > 99 |  |  | O=C(O)/C=C/c1ccc(-c2ccc(OC(F)(F)F)cc2)cc1OCCCSc1ccccc1 [Compound 489]
8 | 5 | 55 | > 99 | 98 |  |  | O=C(O)C(=O)N(CCCCc1ccccc1)c1ccc(N2CCCCCC2)c(-c2ccc(OC(F)(F)F)cc2)c1 [Compound 674]
9 | 18 | 29 | 94 | > 99 |  |  | CC(C)(C)c1ccc(Sc2cc(-c3ccc(OC(F)(F)F)cc3)ccc2/C=C\C(=O)O)cc1 [Compound 529]
10 | 0 | 0 | 15 | 74 |  |  | COc1ccc(-c2ccc(OC(F)(F)F)cc2)cc1N(CCCCc1ccccc1)C(=O)C(=O)O [Compound 651]
11 | 17 | 54 | > 99 |  |  |  | CCCCCCCOc1cc(-c2ccc(OC(F)(F)F)cc2)cc(OCCCCCCC)c1OCC(=O)O [Compound 425]
12 | 19 | 16 | 70 | > 99 |  |  | CCCCc1ccc(Oc2cc(-c3ccc(OC(F)(F)F)cc3)ccc2OCC(=O)O)cc1 [Compound 481]
13 | 9 | 20 | 93 | 99 |  |  | CC(C)(C)c1ccc(Oc2cc(-c3cc(Cl)ccc3Cl)ccc2OCC(=O)O)cc1 [Compound 455]
14 | 13 | 26 | 91 | > 99 |  |  | CC(C)(C)c1ccc(Oc2cc(-c3cccc(OC(F)(F)F)c3)ccc2CCC(=O)O)cc1 [Compound 504]
15 | 17 | 14 | 70 | > 99 |  |  | O=C(O)CCc1ccc(-c2ccc(OC(F)(F)F)cc2)cc1Oc1ccc(OC(F)(F)F)cc1 [Compound 479]

More lines, now with the values behind:

Row | SMILES | inhibition at 0.1 µM [%] | inhibition at 0.3 µM [%] | inhibition at 1 µM [%] | inhibition at 3 µM [%] | inhibition at 10 µM [%] | inhibition at 25 µM [%]
16 | CC(C)c1ccc(Oc2cc(-c3ccc(OC(F)(F)F)cc3)ccc2/C=C/C(=O)O)cc1 [Compound 509] | 1 | 22 | 96 | > 99 |  | 
17 | CC(C)(C)c1ccc(COc2ccc(-c3ccc(OC(F)(F)F)cc3)cc2C(=O)O)cc1 [Compound 421] | 0 | 3 | 14 | 81 |  | 
18 | O=C(O)CCc1ccc(-c2ccc(OC(F)(F)F)cc2)cc1OC(c1ccccc1)c1ccccc1 [Compound 507] | 6 | 8 | 49 | > 99 |  | 
19 | CC(C)(C)c1ccc(Oc2cc(-c3cccc(C(F)(F)F)c3)ccc2OCC(=O)O)cc1 [Compound 315] | 13 | 16 | 60 | > 99 |  | 
20 | CCCCCN(C(=O)C(=O)O)c1cc(-c2ccc(OC(F)(F)F)cc2)ccc1OCCCCc1ccccc1 [Compound 358] | 0 | 10 | 55 | 98 |  | 
21 | CCCCCCCCCCCCCCCOc1cc(-c2ccc(OC(F)(F)F)cc2)ccc1N(CCCCc1ccccc1)C(=O)C(=O)O [Compound 385] | 74 | > 99 | > 99 | > 99 |  | 
22 | CC(C)(C)[C@H]1CC[C@@H](N(C(=O)C(=O)O)c2ccc(-c3ccc(OC(F)(F)F)cc3)cc2)CC1 [Compound 666] | 0 | 21 | 89 | 98 |  | 
23 | CC(C)(C)c1ccc(Sc2cc(-c3ccc(OC(F)(F)F)cc3)ccc2/C=C/C(=O)O)cc1 [Compound 462] | 37 | 94 | 97 | 95 |  | 
24 | CCCCCOc1ccc(-c2cccc(C(F)(F)F)c2)cc1N(CCCCc1ccccc1)C(=O)C(=O)O [Compound 378] | 20 | 7 | 80 | 91 |  | 
25 | CCCCCCCOc1cc(-c2ccc(OC(F)(F)F)cc2)ccc1N(CCCCc1ccccc1)C(=O)C(=O)O [Compound 386] | 5 | 18 | > 99 | > 99 |  | 
26 | CCCCOc1cccc(Oc2cc(-c3ccc(OC(F)(F)F)cc3)ccc2CCC(=O)O)c1 [Compound 472] | 15 | 14 | 71 | > 99 |  | 
27 | CCCCCOc1ccc(-c2ccc(OC(F)(F)F)cc2)cc1N(CCCCc1ccc(Cl)cc1)C(=O)C(=O)O [Compound 384] | 0 | 11 | 91 | 95 |  | 
28 | CC(C)(C)c1ccc(COc2cc(-c3ccc(OC(F)(F)F)cc3)ccc2OCC(=O)O)cc1 [Compound 304] | 3 | 1 | 23 | 99 |  | 
29 | CCCCCOc1cc(-c2ccc(OC(F)(F)F)cc2)cc(N(CCCCc2ccccc2)C(=O)C(=O)O)c1OCCCCC [Compound 372] | 2 | 27 | 97 | 93 |  | 
30 | CCCCCOc1cc(-c2ccc(OC(F)(F)F)cc2)cc(OCc2ccc(C(C)(C)C)cc2)c1OCC(=O)O [Compound 301] | 15 | 25 | 96 | 97 |  | 
31 | CCCCCOc1ccc(-c2ccc(C(C)C)cc2)cc1N(CCCCc1ccccc1)C(=O)C(=O)O [Compound 678] | 19 | 33 | 97 | 94 |  | 
32 | CCCCCCCCCOc1ccc(-c2ccc(OC(F)(F)F)cc2)cc1N(CCCCc1ccccc1)C(=O)C(=O)O [Compound 364] | 41 | 94 | 97 | 92 |  | 
33 | CCCCC(Oc1cc(-c2ccc(OC(F)(F)F)cc2)ccc1OCCCCc1ccc(Cl)cc1)C(=O)O (centres unmarked) [Compound 325] | 11 | 5 | 85 | 91 |  | 
34 | CC(Oc1cc(-c2ccc(OC(F)(F)F)cc2)ccc1/C=C/C(=O)O)c1ccccc1 (centres unmarked) [Compound 500] | 19 | 14 | 25 | 80 |  | 
35 | CC(C)(C)c1ccc(Oc2cc(-c3ccc(OC(F)(F)F)cc3)ccc2C(=O)O)cc1 [Compound 434] | 14 | 8 | 66 | > 99 |  | 
36 | CCCCC(Oc1cc(-c2ccc(OC(F)(F)F)cc2)ccc1OCCCCc1ccc(F)cc1)C(=O)O (centres unmarked) [Compound 324] | 0 | 1 | 66 | 97 |  | 
37 | CC(C)(C)OCCOc1ccc(-c2ccc(OC(F)(F)F)cc2)cc1N(CCCCc1ccccc1)C(=O)C(=O)O [Compound 351] | 2 | 7 | 23 | 84 |  | 
38 | CCCCCOc1ccc(-c2ccc(C(F)(F)F)cc2)cc1N(CCCCc1ccccc1)C(=O)C(=O)O [Compound 390] | 4 | 12 | 79 | 87 |  | 
39 | CCCCCCCCCCCCCCCOc1ccc(-c2ccc(OC(F)(F)F)cc2)cc1N(CCCCc1ccccc1)C(=O)C(=O)O [Compound 375] | 73 | 97 | > 99 | 79 |  | 
40 | CC(C)(C)c1ccc(Oc2cc(-c3ccc(C(F)(F)F)cc3)ccc2OCC(=O)O)cc1 [Compound 330] | 0 | 1 | 47 | 96 |  | 
41 | CC(C)(C)c1ccc(CN(C(=O)CC(=O)O)c2ccc(-c3ccc(OC(F)(F)F)cc3)cc2)cc1 [Compound 608] |  |  | 11 | 59 | 95 | 95
42 | CCCCCCCOc1ccc(N(CCCCc2ccccc2)C(=O)C(=O)O)cc1-c1ccc(OC(F)(F)F)cc1 [Compound 394] | 13 | 69 | 98 | > 99 |  | 
